The subject of one assay is human RPE cells. Nature of the assay: [3H]thymidine incorporation / proliferation of cultured human RPE cells. The following applies: for effect on RPE cell proliferation, agent alone: FIG. 3, alone. A general note: Incorporation of labelled thymidine or its analogues reports DNA synthesis.
The test system of assay [1] is traction retinal detachment in rabbits. Nature of the assay: Traction retinal detachment in rabbits after human RPE cells, intravitreal injection of 168 and 299. Type of assay: in vivo, rabbit.
For assay [2] the test system is unchanged. Nature of the assay: Traction retinal detachment in rabbits after human RPE cells, subconjunctival injection. The following applies: subconjunctival 0.3 mg once a day for five days. Type of assay: in vivo, rabbit. From the text: Due to the toxicity of certain RAR agonists and because the effects of retinoids are delayed in onset and reversible, methods for sustained release of the retinoids were investigated. […] The therapeutic effect of the RAR specific agonists was greater than that of RA, which is an agonist for both RXRs and RARs. There were no signs of any toxicity to the retina.

Assay [3] shares this test system. Nature of the assay: Traction retinal detachment in rabbits after human dermal fibroblasts, intravitreous lipid microvesicles. The following applies: for % Any RD / % Total RD / RD at 7 Days, Partial / RD at 7 Days, Total / RD at 14 Days, Partial / RD at 14 Days, Total / RD at 28 Days, Partial / RD at 28 Days, Total: human dermal fibroblasts.
Text: In this experiment the retinoid was incorporated into lipid microvesicles utilizing standard techniques.
The test system is the same in assay [4]. Nature of the assay: Traction retinal detachment in rabbits after human dermal fibroblasts, subconjunctival injection.
Assay [5] shares this test system. Nature of the assay: Traction retinal detachment in rabbits after human dermal fibroblasts, subconjunctival lipid microvesicles. Format: in vivo, rabbit. The following applies: for % Any RD / % Total RD / RD at 7 Days, Partial / RD at 7 Days, Total / RD at 14 Days, Partial / RD at 14 Days, Total / RD at 28 Days, Partial / RD at 28 Days, Total: human dermal fibroblasts.

As for `CC1=C(/C=C/C(C)=C/C=C/C(C)=C\C(=O)O)C(C)(C)CCC1` [13-cis RA, 13-cis-retinoic acid, reference compound], the IC50 (commonly the concentration that inhibits the measured activity by half) with human RPE cells (read-out: RPE 148 IC50 (50% inhibition of RPE cell growth relative to mock treated RPE cells), measured as in Example 2) came out at 30 nM.
Consider `CCOC(=O)c1ccc(C#Cc2ccc3c(c2)C(C)(C)CCS3)nc1` [Compound 168, ethyl 6-[2-(4,4-dimethylthiochroman-6-yl)ethynyl]nicotinate], for which, in assay [1], the “% Any RD” value is 80%; the “% Total RD” value was determined as 8%; the “RD at 7 Days, Partial” value is reported as 1; the “RD at 7 Days, Total” value worked out at 0. In addition, in assay [1], the “RD at 14 Days, Partial” value is 1; the “RD at 14 Days, Total” value is 0; the “RD at 28 Days, Partial” value is on record as 7; the “RD at 28 Days, Total” value is listed as 1. For the same molecule, in assay [2], the “% Any RD” value came to 16%; the “% Total RD” value stood at 16%; the “RD at 7 Days, Partial” value was 0; the “RD at 7 Days, Total” value amounted to 0. Further, in assay [2], the “RD at 14 Days, Partial” value was determined as 0; the “RD at 14 Days, Total” value was 0; the “RD at 28 Days, Partial” value worked out at 1; the “RD at 28 Days, Total” value came out at 0. In assay [3], the “prevention of traction retinal detachment” value was “very effective in preventing traction retinal detachment”; the “% Any RD” value turned out to be 29%; the “% Total RD” value turned out to be 29%; the “RD at 7 Days, Partial” value stood at 0. In assay [3], the “RD at 7 Days, Total” value turned out to be 0; the “RD at 14 Days, Partial” value is on record as 0; the “RD at 14 Days, Total” value is reported as 0; the “RD at 28 Days, Partial” value is 0. The “RD at 28 Days, Total” value in assay [3] is recorded as 2. Further, in assay [4], the “% Any RD” value amounted to 60%; the “% Total RD” value is on record as 20%; the “RD at 7 Days, Partial” value is 0; the “RD at 7 Days, Total” value worked out at 0. In assay [4], the “RD at 14 Days, Partial” value was found to be 0; the “RD at 14 Days, Total” value turned out to be 0; the “RD at 28 Days, Partial” value turned out to be 4; the “RD at 28 Days, Total” value came to 2. For the same molecule, the “effect on retinal detachments” value in assay [4] is “decreased the number of retinal detachments and slowed the rate at which they developed”. In assay [5], the “inhibition of tractional retinal detachment” value is “substantially more effective at inhibiting tractional retinal detachment”; the “% Any RD” value is listed as 33%; the “% Total RD” value worked out at 33%; the “RD at 7 Days, Partial” value was found to be 0. Moreover, in assay [5], the “RD at 7 Days, Total” value is listed as 0; the “RD at 14 Days, Partial” value came out at 1; the “RD at 14 Days, Total” value turned out to be 0; the “RD at 28 Days, Partial” value was 0. In assay [5], the “RD at 28 Days, Total” value is 2.
As to `CC1(C)CCOc2ccc(C#Cc3ccc(C(=O)O)cn3)cc21` [Compound 299, 6-[2-(4,4-dimethylchroman-6-yl)ethynyl]nicotinic acid], in assay [1], the “% Any RD” value was found to be 80%; the “% Total RD” value was determined as 40%; the “RD at 7 Days, Partial” value amounted to 0; the “RD at 7 Days, Total” value is reported as 0. Moreover, in assay [1], the “RD at 14 Days, Partial” value is recorded as 1; the “RD at 14 Days, Total” value came out at 1; the “RD at 28 Days, Partial” value was found to be 4; the “RD at 28 Days, Total” value is 4. Also, in assay [2], the “% Any RD” value is 0%; the “% Total RD” value is reported as 0%; the “RD at 7 Days, Partial” value was 0; the “RD at 7 Days, Total” value is 0. In addition, in assay [2], the “RD at 14 Days, Partial” value is 0; the “RD at 14 Days, Total” value was determined as 0; the “RD at 28 Days, Partial” value amounted to 0; the “RD at 28 Days, Total” value was 0. In assay [3], the “prevention of traction retinal detachment” value is on record as “not effective”; the “% Any RD” value was 100%; the “% Total RD” value is reported as 100%; the “RD at 7 Days, Partial” value came to 0. Moreover, in assay [3], the “RD at 7 Days, Total” value stood at 0; the “RD at 14 Days, Partial” value is recorded as 0; the “RD at 14 Days, Total” value is listed as 0; the “RD at 28 Days, Partial” value is given as 0. Moreover, in assay [3], the “RD at 28 Days, Total” value was found to be 3. In assay [4], the “% Any RD” value stood at 40%; the “% Total RD” value is listed as 0%; the “RD at 7 Days, Partial” value stood at 0; the “RD at 7 Days, Total” value stood at 0. Besides, in assay [4], the “RD at 14 Days, Partial” value was 0; the “RD at 14 Days, Total” value is reported as 0; the “RD at 28 Days, Partial” value came to 4; the “RD at 28 Days, Total” value was found to be 0. Also, the “effect on retinal detachments” value in assay [4] is “decreased the number of retinal detachments and slowed the rate at which they developed”. In assay [5], the “% Any RD” value stood at 63%; the “% Total RD” value came to 50%; the “RD at 7 Days, Partial” value came out at 0; the “RD at 7 Days, Total” value stood at 0. Besides, in assay [5], the “RD at 14 Days, Partial” value worked out at 0; the “RD at 14 Days, Total” value amounted to 1; the “RD at 28 Days, Partial” value amounted to 1; the “RD at 28 Days, Total” value is reported as 4.
Regarding `C=C1/C(=C\C=C2/CCC[C@]3(C)[C@@H]([C@H](C)CCCC(C)(C)O)CC[C@@H]23)C[C@@H](O)C[C@@H]1O` [Compound D3, 1,25-dihydroxyvitamin D3, reference compound], the “effect on RPE cell proliferation, agent alone” value with human RPE cells was “did not”.
The same measure, in the same setting: then `N[C@@H](Cc1cc(I)c(Oc2ccc(O)c(I)c2)c(I)c1)C(=O)O` [Compound T3, reference compound], with “did not”.

The record behind these values is patent publication US6573271B2, “Method of preventing proliferation of retinal pigment epithelium by retinoic acid receptor agonists” (John Hopkins University School of Medicine, priority 1995, dated 2003).
